Key:
[1] = Stability test of injectable preparation (salt in WFI, HPLC); conditions: in WFI 2 mg/ml
[2] = Stability test of oral preparation (powder in vial, HPLC); conditions: for Residual amount: powder (solid)
Method: It was then stored at different temperatures (25° C., 40° C., 60° C.) for 6 months and the amount of active ingredients in powder were measured by HPLC.

[3] = tested on: SD (Sprague Dawley) male rats; experiment: Acute toxicity test in rats, single intravenous dose; assay type: in vivo; conditions: for Number of dead animals/Number of drug-treated animals: 14 days after administration
[4] = as above; assay type: in vivo; conditions: male, Sprague-Dawley, rat, in vivo, iv; rats, single i.v. dose, 14 days; read-out: Estimated LD50
physchem = assay type: physicochemical; conditions: 25 °C, water, thermodynamic from solid

Compound `O=C([O-])c1cc(NCc2c(F)c(F)c(C(F)(F)F)c(F)c2F)ccc1O.[Na+]` [sodium salt, sodium 2-hydroxy-5-(2,3,5,6-tetrafluoro-4-trifluoromethyl-benzylamino)benzoate] has a Residual amount ([1]; 25° C., day 0) of 104.15 ± 0.54%, a Residual amount ([1]; 25° C., day 3) of 101.89 ± 1.16% and a Residual amount ([1]; 25° C., day 7) of 100.59 ± 0.19%. It also gave a Residual amount ([1]; 25° C., day 14) of 101.63 ± 0.19%, a Residual amount ([1]; 25° C., day 21) of 99.25 ± 1.41% and a Residual amount ([1]; 25° C., day 30) of 98.50 ± 1.64%. The Residual amount ([1]; 25° C., day 60) was 98.52 ± 0.02%, the Residual amount ([1]; 25° C., day 90) was 94.04 ± 4.28% and the Residual amount ([1]; 25° C., day 120) was 92.79 ± 1.01%. It also gave a Residual amount ([1]; 25° C., day 150) of 90.18 ± 3.14%, a Residual amount ([1]; 25° C., day 180) of 85.56 ± 4.58% and a Residual amount ([1]; 40° C., day 0) of 104.15 ± 0.54%. The Residual amount ([1]; 40° C., day 3) was 102.77 ± 0.08%, the Residual amount ([1]; 40° C., day 7) was 98.54 ± 0.71% and the Residual amount ([1]; 40° C., day 14) was 99.56 ± 0.72%. For the same compound, the Residual amount ([1]; 40° C., day 21) was 95.98 ± 1.50%, the Residual amount ([1]; 40° C., day 30) was 95.17 ± 0.07% and the Residual amount ([1]; 40° C., day 60) was 91.51 ± 1.17%. It also gave a Residual amount ([1]; 40° C., day 90) of 86.36 ± 0.90%, a Residual amount ([1]; 40° C., day 120) of 79.02 ± 1.05% and a Residual amount ([1]; 40° C., day 150) of 77.42 ± 0.71%. For the same compound, the Residual amount ([1]; 40° C., day 180) was 72.32 ± 0.38%, the Residual amount ([1]; 60° C., day 0) was 104.15 ± 0.54% and the Residual amount ([1]; 60° C., day 3) was 99.39 ± 0.43%. For the same compound, the Residual amount ([1]; 60° C., day 7) was 92.01 ± 1.27%, the Residual amount ([1]; 60° C., day 14) was 92.96 ± 1.28% and the Residual amount ([1]; 60° C., day 21) was 84.54 ± 1.34%. It also gave a Residual amount ([1]; 60° C., day 30) of 82.88 ± 4.35%, a Residual amount ([1]; 60° C., day 60) of 70.25 ± 4.27% and a Residual amount ([1]; 60° C., day 90) of 56.00 ± 11.70%. For the same compound, the Residual amount ([1]; 60° C., day 120) was 53.43 ± 6.30%, the Residual amount ([1]; 60° C., day 150) was 40.37 ± 14.41% and the Residual amount ([1]; 60° C., day 180) was 37.10 ± 12.35%. The “stability in powder form” value ([2]; high temperatures) was “relatively stable in high temperatures”, the Residual amount ([2]; 25° C., day 0) was 101.33 ± 1.02% and the Residual amount ([2]; 25° C., day 7) was 100.75 ± 6.24%. It also gave a Residual amount ([2]; 25° C., day 14) of 100.45 ± 1.24%, a Residual amount ([2]; 25° C., day 21) of 99.76 ± 0.70% and a Residual amount ([2]; 25° C., day 30) of 99.61 ± 3.21%. The Residual amount ([2]; 25° C., day 60) was 99.60 ± 0.16%, the Residual amount ([2]; 25° C., day 120) was 99.51 ± 1.70% and the Residual amount ([2]; 25° C., day 180) was 99.19 ± 2.28%. It also gave a Residual amount ([2]; 40° C., day 0) of 101.33 ± 1.02%, a Residual amount ([2]; 40° C., day 7) of 100.81 ± 3.35% and a Residual amount ([2]; 40° C., day 14) of 100.69 ± 0.29%. It also gave a Residual amount ([2]; 40° C., day 21) of 100.57 ± 0.48%, a Residual amount ([2]; 40° C., day 30) of 100.46 ± 0.27% and a Residual amount ([2]; 40° C., day 60) of 100.07 ± 0.16%. It also gave a Residual amount ([2]; 40° C., day 120) of 99.94 ± 1.15%, a Residual amount ([2]; 40° C., day 180) of 99.89 ± 1.11% and a Residual amount ([2]; 60° C., day 0) of 101.33 ± 1.02%. It also gave a Residual amount ([2]; 60° C., day 7) of 101.27 ± 4.45%, a Residual amount ([2]; 60° C., day 14) of 101.14 ± 0.50% and a Residual amount ([2]; 60° C., day 21) of 100.15 ± 1.14%. For the same compound, the Residual amount ([2]; 60° C., day 30) was 100.10 ± 0.75%, the Residual amount ([2]; 60° C., day 60) was 99.91 ± 1.18% and the Residual amount ([2]; 60° C., day 120) was 99.81 ± 2.28%. For the same compound, the Residual amount ([2]; 60° C., day 180) was 99.75 ± 0.20%, the “Number of dead animals/Number of drug-treated animals” value ([3]; 50 mg/kg single i.v. dose) was 0/5 and the “Number of dead animals/Number of drug-treated animals” value ([3]; 100 mg/kg single i.v. dose) was 0/5. The “Number of dead animals/Number of drug-treated animals” value ([3]; 150 mg/kg single i.v. dose) was 0/7, the “Number of dead animals/Number of drug-treated animals” value ([3]; 175 mg/kg single i.v. dose) was 1/7 and the “Number of dead animals/Number of drug-treated animals” value ([3]; 200 mg/kg single i.v. dose) was 2/7. The “Number of dead animals/Number of drug-treated animals” value ([3]; 225 mg/kg single i.v. dose) was 2/7, the “Number of dead animals/Number of drug-treated animals” value ([3]; 250 mg/kg single i.v. dose) was 5/5 and the “toxicity compared with free base” value ([3]; rats, i.v., Tables 7-9) was “less toxicity than free base”. For the same compound, the LD50 at 14 day [4] was 225 to 250 mg/kg and the solubility at 48 h (physchem) was 25 to 80 mg/mL.
